Patent US7902181B2, “Compounds 010” (AstraZeneca AB, priority 2007, dated 2011)
Structures can show the parent of a compound that is named as a salt.

Target: Recombinant Human (rh) DPP1 (Homo sapiens, UniProt P53634)
Test: Fluorescence Assay for Recombinant Human (rh) DPP1
Format: biochemical
Details: rhDPP1; substrate H-Gly-Arg-AMC; pH5.0; 30 min pre-incubation, 60 min reaction at 22° C.; highest concentration 10 μM; read-out: DPP1 activity, pIC50 (converted)
Procedure, shortened: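 Release of AMC from 100 μM H-Gly-Arg-AMC by rhDPP1 ([…]) in 25 mM piperazine pH 5.0, 50 mM NaCl, 5 mM DTT, 0.01% Triton X-100, 1% DMSO, 22 °C. Inhibitors (12-point half-log, top 10 μM) preincubated 30 min, reaction 60 min, fluorescence at 350/450 nm; pIC50 from 4-parameter logistic fit.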

Chain of Recombinant Human (rh) DPP1 (P53634 25-463): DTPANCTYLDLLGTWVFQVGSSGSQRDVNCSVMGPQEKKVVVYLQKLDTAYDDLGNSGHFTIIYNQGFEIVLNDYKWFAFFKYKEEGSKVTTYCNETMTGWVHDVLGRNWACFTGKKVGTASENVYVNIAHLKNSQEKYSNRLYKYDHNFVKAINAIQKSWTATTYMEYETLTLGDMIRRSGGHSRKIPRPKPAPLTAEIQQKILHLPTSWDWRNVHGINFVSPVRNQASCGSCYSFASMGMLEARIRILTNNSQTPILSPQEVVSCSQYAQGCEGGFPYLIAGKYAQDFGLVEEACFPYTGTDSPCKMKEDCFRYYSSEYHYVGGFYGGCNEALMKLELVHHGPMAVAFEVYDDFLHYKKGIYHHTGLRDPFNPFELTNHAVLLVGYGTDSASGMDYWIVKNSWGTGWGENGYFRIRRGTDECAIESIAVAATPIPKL

| Compound | IC50 |
| --- | --- |
| CN1CCN(S(=O)(=O)c2ccc(-c3ccc(C[C@@H](C#N)NC(=O)[C@@H]4CCCCN4)cc3)cc2)CC1 [Example 95, (S)-N-((S)-1-Cyano-2-(4′-(4-methylpiperazin-1-ylsulfonyl)biphenyl-4-yl)ethyl)piperidine-2-carboxamide Trifluoroacetate] | 3.16 nM |
| Cn1c(=O)oc2ccc(-c3ccc(C[C@@H](C#N)NC(=O)[C@@H]4CCCCN4)cc3)cc21 [Example 96, (S)-N-((S)-1-Cyano-2-(4-(3-methyl-2-oxo-2,3-dihydrobenzo[d]oxazol-5-yl)phenyl)ethyl)piperidine-2-carboxamide] | 7.94 nM |
| COCCn1c(=O)oc2ccc(-c3ccc(C[C@@H](C#N)NC(=O)[C@@H]4CCCCN4)cc3)cc21 [Example 97, (S)-N-((S)-1-Cyano-2-(4-(3-(2-methoxyethyl)-2-oxo-2,3-dihydrobenzo[d]-oxazol-5-yl)phenyl)ethyl)piperidine-2-carboxamide] | 15.8 nM |
| Cn1c(=O)sc2cc(-c3ccc(C[C@@H](C#N)NC(=O)[C@@H]4CCCCN4)cc3)ccc21 [Example 98, (S)-N-((S)-1-Cyano-2-(4-(3-methyl-2-oxo-2,3-dihydrobenzo[d]thiazol-6-yl)phenyl)ethyl)piperidine-2-carboxamide] | 50.1 nM |
| N#C[C@H](Cc1ccc(-c2ccc3c(c2)sc(=O)n3CCO)cc1)NC(=O)[C@@H]1CCCCN1 [Example 99, (S)-N-((S)-1-Cyano-2-(4-(3-(2-hydroxyethyl)-2-oxo-2,3-dihydrobenzo[d]thiazol-6-yl)phenyl)ethyl)piperidine-2-carboxamide] | 63.1 nM |
| N#Cc1ccc(-c2cccc(C[C@@H](C#N)NC(=O)[C@@H]3CCCCN3)c2)cc1 [Example 100, (S)-N-((S)-1-Cyano-2-(4′-cyanobiphenyl-3-yl)ethyl)piperidine-2-carboxamide Trifluoroacetate] | 1000 nM |
| CS(=O)(=O)c1cc(-c2ccc(C[C@@H](C#N)NC(=O)[C@@H]3CCCCN3)cc2)ccc1CC#N [Example 101, (S)-N-((S)-1-Cyano-2-(4′-(cyanomethyl)-3′-(methylsulfonyl)biphenyl-4-yl)ethyl)-piperidine-2-carboxamide Trifluoroacetate] | 39.8 nM |
| N#C[C@H](Cc1ccc(S(=O)(=O)c2ccccc2)cc1)NC(=O)[C@@H]1CCCCN1 [Example 102, (S)-N-((S)-1-Cyano-2-(4-(phenylsulfonyl)phenyl)ethyl)piperidine-2-carboxamide] | 3160 nM |
| N#Cc1ccc(-c2ccc([C@H]3C[C@@]3(C#N)NC(=O)[C@@H]3CCCCN3)cc2)cc1 [Example 103, (S)-N-((1R,2R)-1-Cyano-2-(4′-cyanobiphenyl-4-yl)cyclopropyl)piperidine-2-carboxamide Trifluoroacetate] | 158 nM |
| N#C[C@@]1(NC(=O)[C@@H]2CCCCN2)C[C@@H]1c1ccc(-c2ccc(S(=O)(=O)N3CCC3)cc2)cc1 [Example 104, (S)-N-((1R,2R)-2-(4′-(Azetidin-1-ylsulfonyl)biphenyl-4-yl)-1-cyanocyclopropyl)piperidine-2-carboxamide Trifluoroacetate] | 79.4 nM |
| N#C[C@H](Cc1ccc(-c2ccc(OC(F)(F)F)cc2)cc1)NC(=O)[C@@H]1CCCCN1 [Example 105, (S)-N-((S)-1-Cyano-2-(4′-(trifluoromethoxy)biphenyl-4-yl)ethyl)piperidine-2-carboxamide] | 20 nM |
| CS(=O)(=O)c1ccc(-c2ccc(C[C@@H](C#N)NC(=O)[C@@H]3CCCCN3)cc2)cc1 [Example 106, (S)-N-((S)-1-Cyano-2-(4′-(methylsulfonyl)biphenyl-4-yl)ethyl)piperidine-2-carboxamide] | 12.6 nM |
| CCN1CCN(S(=O)(=O)c2ccc(-c3ccc(CC(C#N)NC(=O)[C@@H]4CCCCN4)cc3)cc2)CC1 (stereo partly drawn) [Example 107, ((2S)-N-(1-Cyano-2-(4′-(4-ethylpiperazin-1-ylsulfonyl)biphenyl-4-yl)ethyl)piperidine-2-carboxamide Ditrifluoroacetate] | 5.01 nM |
| CN1CCCN(S(=O)(=O)c2ccc(-c3ccc(CC(C#N)NC(=O)[C@@H]4CCCCN4)cc3)cc2)CC1 (stereo partly drawn) [Example 108, (2S)-N-(1-Cyano-2-(4′-(4-methyl-1,4-diazepan-1-ylsulfonyl)biphenyl-4-yl)ethyl)piperidine-2-carboxamide Ditrifluoroacetate] | 31.6 nM |
| N#C[C@H](Cc1ccc(-c2cccc(CN3CCOCC3)c2)cc1)NC(=O)[C@@H]1CCCCN1 [Example 109, (S)-N-((S)-1-Cyano-2-(3′-(morpholinomethyl)biphenyl-4-yl)ethyl)piperidine-2-carboxamide Ditrifluoroacetate] | 158 nM |
| N#C[C@H](Cc1ccc(-c2ccc3c(c2)CCNC3)cc1)NC(=O)[C@@H]1CCCCN1 [Example 110, (S)-N-((S)-1-Cyano-2-(4-(1,2,3,4-tetrahydroisoquinolin-6-yl)phenyl)ethyl)piperidine-2-carboxamide Ditrifluoroacetate] | 158 nM |
